Measured values: patent US9994812B2, “Systems and method for engineering muscle tissue” (UNIVERSITY OF WASHINGTON THROUGH ITS CENTER FOR …, priority 2012, dated 2018)

Columns and labels:
Format in all cases: cell-based, human
[1] = system: cardiomyocytes derived from healthy, and diseased hiPSC cells; assay: Drug testing on ANP, action potential profile; settings: addition of Verapamil
[2] = system: paced hiPSC-derived cardiomyocytes monolayer; assay: Optical mapping of conduction velocity vectors and spatial activation map; settings: 40 μM vs 0 μM
[3] = system: hESC-derived cardiomyocyte cultures; assay: Action potential time course traces with 1 Hz pacing on the nanotextured substrate; settings: 0, 20 and 40 μM, 4 seconds
Protocol: Representative action potential time course traces for 4 seconds in the presence of 1 Hz pacing in the presence of carboxelone, a GAP junction inhibitor at 0 μM (FIG. 19A), 20 μM (FIG. 19B), and 40 μM (FIG. 19C) are shown.

hES-CM monolayers = assay: Action potential profile of monolayers on the ANP polymer substrate
[4] = system: hESC-derived cardiomyocytes (hESC-CMs); assay: High throughput cardiotoxicity profiling, live/dead imaging (Calcein-AM / EtBr); settings: doxorubicin, 24 hrs
Protocol: FIGS. 16A-16B show high throughput cardiotoxicity profiling. To test the capacity of the ANP and system to identify cardiotoxic drugs, hESC-derived cardiomyocytes (hESC-CMs) were treated with doxorubicin for 24 hrs and then imaged using the high-throughput Applied Precision DeltaVision system.

[5] = system: control IMR90 cells (IMR90 hiPSC-derived cardiomyocytes); assay: Sarcomere organization on nanotextured platforms, control cells; settings: addition of isoproterenol
From the text: (§1) FIG. 34A-34D show nanotextured platforms facilitate maturation of hiPSC-derived cardiomyocytes allowing them to be used as effective disease models for drug testing against cardiomyopathies, and as in vitro cardiac disease models. […] Since nanotextures allow physiological organization of sarcomeres, it serves as a disease model to test the effect of a drug on a diseased cardiomyocyte.

[6] = system: MHY7 mutated iPSC-derived CMs; assay: Sarcomere organization on nanotextured platforms, disease model; settings: addition of isoproterenol
From the text: as §1

Which AP profile [1] does the source give for COc1ccc(CCN(C)CCCC(C#N)(c2ccc(OC)c(OC)c2)C(C)C)cc1OC (stereo not drawn) [Verapamil] here?
The AP profile was “causes distortions in AP profile”.

With CC1(C)[C@@H](OC(=O)CCC(=O)O)CC[C@]2(C)[C@H]3C(=O)C=C4[C@@H]5C[C@@](C)(C(=O)O)CC[C@]5(C)CC[C@@]4(C)[C@]3(C)CC[C@@H]12 [carboxelone] as the molecule, how does the conduction velocity vectors [2] read?
Its conduction velocity vectors is “decrease in conduction across the tissue”.

And the “spatial activation map of electrical activity” value [2]?
The value was “decrease in electrical activity of the monolayer”.

What about the “effect on action potential time course traces” value [3] of the same molecule?
The value was “dose dependent”.

With COc1cc(N)c(Cl)cc1C(=O)NC1CCN(CCCOc2ccc(F)cc2)CC1OC (stereo not drawn) [cisapride] as the molecule, how does the AP profile (hES-CM monolayers; K+ channel inhibitor on hES-CM monolayers) read?
Its AP profile is “distortions in AP profile”.

And the “prolongation of action potential” value (hES-CM monolayers; addition of cisapride for 2 minutes)?
Its value is “prolongation of action potential in a significant manner”.

Which “percentage of dead hESC-CMs” value [4] does the source give for COc1cccc2c1C(=O)c1c(O)c3c(c(O)c1C2=O)C[C@@](O)(C(=O)CO)C[C@@H]3O[C@H]1C[C@H](N)[C@H](O)[C@H](C)O1 [doxorubicin] here?
Its value is “statistically significant increase”.

What does the source list for CC(C)NCC(O)c1ccc(O)c(O)c1 (stereo not drawn) [isoproterenol]?
sarcomeric organization [5]: does not result in loss of sarcmeric organization; sarcomere organization [6]: results in loss of sarcomere organization
